Experimental data from the supplement of paper PMC10883282.
± gives the standard deviation of the averaged measurements.

Tested on: G401
Assay: relative viability vs DMSO control (72 h) (fraction); higher = more viable cells
How it was run: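 Sarcoma cell lines were seeded in 384-well plates at densities set to reach 80–90% confluence. After 24 h, 2.5 µl of serially diluted compound was added (source plates 10 mM to 0.0002 mM), and plates were held 72 h at 37 °C, 5% CO2, with 0.1% DMSO vehicle and a 5 µM positive control. Relative viability came from ATPLite readings as percent growth, averaged over up to triplicate wells. Data were rescaled so full viability equals 1 and none equals 0.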

SMILES | relative viability (0.00017 µM) | relative viability (0.00051 µM) | relative viability (0.00152 µM) | relative viability (0.00457 µM) | relative viability (0.01372 µM) | relative viability (0.04115 µM) | relative viability (0.1235 µM) | relative viability (0.3704 µM) | relative viability (1.111 µM) | relative viability (3.333 µM) | relative viability (10 µM)
C[C@@H](c1ccc2nccn2c1)n1nnc2ncc(-c3cnn(C)c3)nc21 [Volitinib] | 1.01 ± 0.029 | 1.01 ± 0.042 | 1.03 ± 0.035 | 1.04 ± 0.044 | 1 ± 0.018 | 1.03 ± 0.019 | 1.03 ± 0.015 | 1.04 ± 0.046 | 1.03 ± 0.049 | 0.987 ± 0.026 | 0.955 ± 0.025
CC(C)(C)c1cc(NC(=O)Nc2ccc(-c3cn4c(n3)sc3cc(OCCN5CCOCC5)ccc34)cc2)no1 [Quizartinib] | 1.02 ± 0.04 | 1.01 ± 0.017 | 1.05 ± 0.048 | 1.06 ± 0.026 | 1.04 ± 0.039 | 0.984 ± 0.052 | 1 ± 0.013 | 0.926 ± 0.011 | 0.971 ± 0.021 | 0.945 ± 0.051 | 0.87 ± 0.023
CC(C)N1CCN(Cc2cnc(-c3cc(-c4cccc5[nH]ccc45)cc4[nH]ncc34)o2)CC1 [Nemiralisib] | 0.962 ± 0.043 | 0.933 ± 0.035 | 0.883 ± 0.015 | 0.921 ± 0.033 | 0.904 ± 0.035 | 0.911 ± 0.048 | 0.916 ± 0.013 | 0.877 ± 0.01 | 0.833 ± 0.021 | 0.735 ± 0.026 | 0.609 ± 0.012
C=CC(=O)N1CCC[C@@H](n2nc(-c3ccc(Oc4ccccc4)cc3)c3c(N)ncnc32)C1 [Ibrutinib] | 1.03 ± 0.025 | 1.03 ± 0.095 | 1.03 ± 0.037 | 1.01 ± 0.0057 | 1.01 ± 0.025 | 1.05 ± 0.013 | 0.998 ± 0.072 | 0.995 ± 0.05 | 1.02 ± 0.013 | 0.922 ± 0.045 | 0.668 ± 0.049
CN1CCC(COc2cnc(-c3cccc(Cn4nc(-c5cccc(C#N)c5)ccc4=O)c3)nc2)CC1 [Tepotinib] | 1.02 ± 0.014 | 1.02 ± 0.015 | 1.012 ± 0.01 | 1.003 ± 0.0083 | 1.04 ± 0.018 | 1.04 ± 0.057 | 1.02 ± 0.013 | 1.01 ± 0.029 | 1 ± 0.015 | 0.9287 ± 0.0054 | 0.787 ± 0.02
C[C@@H]1CCN(C(=O)CC#N)C[C@@H]1N(C)c1ncnc2[nH]ccc12 [Tofacitinib] | 1.07 ± 0.026 | 1.044 ± 0.0027 | 1.06 ± 0.027 | 1.02 ± 0.015 | 1.05 ± 0.012 | 1.05 ± 0.026 | 1.03 ± 0.035 | 1.07 ± 0.048 | 1.04 ± 0.045 | 1.06 ± 0.056 | 1.06 ± 0.037
Cc1cc(Nc2ncnc3ccc(NC4=NC(C)(C)CO4)cc23)ccc1Oc1ccn2ncnc2c1 [Tucatinib] | 1.03 ± 0.042 | 1.04 ± 0.039 | 1.02 ± 0.04 | 1.02 ± 0.037 | 1.01 ± 0.037 | 0.985 ± 0.036 | 1.02 ± 0.026 | 1.01 ± 0.026 | 1.01 ± 0.035 | 0.984 ± 0.025 | 0.985 ± 0.031
O=C(Nc1cnn2ccc(N3CCC[C@@H]3c3cc(F)ccc3F)nc12)N1CC[C@H](O)C1 [Larotrectinib] | 1.032 ± 0.0041 | 1.03 ± 0.016 | 1.021 ± 0.0029 | 1.04 ± 0.033 | 1.04 ± 0.03 | 1.01 ± 0.019 | 1.02 ± 0.028 | 1 ± 0.014 | 1 ± 0.048 | 0.97 ± 0.025 | 0.916 ± 0.034
C=CC(=O)N1CCC([C@@H]2CCNc3c(C(N)=O)c(-c4ccc(Oc5ccccc5)cc4)nn32)CC1 [Zanubrutinib] | 0.964 ± 0.022 | 0.96 ± 0.023 | 0.99 ± 0.023 | 0.99 ± 0.024 | 0.946 ± 0.044 | 0.957 ± 0.031 | 0.957 ± 0.026 | 0.9805 ± 0.0066 | 0.932 ± 0.035 | 0.872 ± 0.029 | 0.801 ± 0.039
CO[C@H]1C[C@@H]2CC[C@@H](C)[C@@](O)(O2)C(=O)C(=O)N2CCCC[C@H]2C(=O)O[C@H]([C@H](C)C[C@@H]2CC[C@@H](OP(C)(C)=O)[C@H](OC)C2)CC(=O)[C@H](C)/C=C(\C)[C@@H](O)[C@@H](OC)C(=O)[C@H](C)C[C@H](C)/C=C/C=C/C=C/1C [Ridaforolimus] | 0.919 ± 0.043 | 0.885 ± 0.03 | 0.841 ± 0.071 | 0.793 ± 0.068 | 0.751 ± 0.07 | 0.739 ± 0.056 | 0.744 ± 0.027 | 0.725 ± 0.019 | 0.712 ± 0.012 | 0.681 ± 0.017 | 0.645 ± 0.022
